Experimental data reported in ChEMBL document CHEMBL5150047, “Novel bioactive hybrid Celecoxib-HDAC Inhibitor, induces apoptosis in human acute lymphoblastic leukemia cells” (Bioorg Med Chem, 2022).
Active and inactive are the calls of the source. The rule behind the calls is not given here.

Key:
MCF-10A = experiment: Cytotoxicity against human MCF-10A cells assessed as reduction in cell viability by CCK8 assay; type: toxicity, cell-based
HUVEC [1] = experiment: Cytotoxicity against human HUVEC cells assessed as reduction in cell viability by CCK8 assay; type: toxicity, cell-based
L02 = experiment: Cytotoxicity against human L02 cells assessed as reduction in cell viability by CCK8 assay; type: toxicity, cell-based
NALM-6 [2] = experiment: Antiproliferative activity against human NALM-6 cells assessed as reduction in cell viability incubated for 48 hrs by CCK8 assay; type: functional, cell-based; conditions: NALM-6, 48 h
HL-60 = experiment: Antiproliferative activity against human HL-60 cells assessed as reduction in cell viability incubated for 48 hrs by CCK8 assay; type: functional, cell-based; conditions: HL-60, 48 h
K562 = experiment: Antiproliferative activity against human K562 cells assessed as reduction in cell viability incubated for 48 hrs by CCK8 assay; type: functional, cell-based; conditions: K562, 48 h
Jurkat = experiment: Antiproliferative activity against human Jurkat cells assessed as reduction in cell viability incubated for 48 hrs by CCK8 assay; type: functional, cell-based
NALM-6 [3] = experiment: Induction of apoptosis in human NALM-6 cells assessed as viable cells at 10 uM incubated for 48 hrs by AnnexinV-FITC/PI staining based flow cytometry (reference value: 97.98%); type: functional; conditions: read-out: Activity
Histone deacetylase = experiment: Inhibition of HDAC in human NALM-6 nuclear extract incubated for 48 hrs by fluorometric analysis; type: subcellular, Nucleus
NALM-6 [4] = experiment: Induction of apoptosis in human NALM-6 cells assessed as late apoptotic cells at 10 uM incubated for 48 hrs by AnnexinV-FITC/PI staining based flow cytometry (reference value: 0.92%); type: functional
NALM-6 [5] = experiment: Induction of apoptosis in human NALM-6 cells assessed as necrotic cells at 30 uM incubated for 48 hrs by AnnexinV-FITC/PI staining based flow cytometry (reference value: 0.01%); type: functional
NALM-6 [6] = experiment: Induction of apoptosis in human NALM-6 cells assessed as viable cells at 30 uM incubated for 48 hrs by AnnexinV-FITC/PI staining based flow cytometry (reference value: 97.98%); type: functional; conditions: read-out: Activity
NALM-6 [7] = experiment: Induction of apoptosis in human NALM-6 cells assessed as necrotic cells at 10 uM incubated for 48 hrs by AnnexinV-FITC/PI staining based flow cytometry (reference value: 0.01%); type: functional
NALM-6 [8] = experiment: Induction of cell cycle arrest in human NALM-6 cells assessed as accumulation of cells at G2 phase at 30 uM incubated for 48 hrs by PI/RNase staining based flow cytometry; type: functional
NALM-6 [9] = experiment: Induction of apoptosis in human NALM-6 cells assessed as increase in cleaved PARP expression at 10 to 30 uM incubated for 48 hrs by western blot analysis; type: functional, cell-based; conditions: dose 10-30 µM
NALM-6 [10] = experiment: Induction of apoptosis in human NALM-6 cells assessed as early apoptotic cells at 30 uM incubated for 48 hrs by AnnexinV-FITC/PI staining based flow cytometry (reference value: 1.09%); type: functional
NALM-6 [11] = experiment: Induction of apoptosis in human NALM-6 cells assessed as late apoptotic cells at 30 uM incubated for 48 hrs by AnnexinV-FITC/PI staining based flow cytometry (reference value: 0.92%); type: functional
NALM-6 [12] = experiment: Induction of apoptosis in human NALM-6 cells assessed as early apoptotic cells at 10 uM incubated for 48 hrs by AnnexinV-FITC/PI staining based flow cytometry (reference value: 1.09%); type: functional
NALM-6 [13] = experiment: Induction of cell cycle arrest in human NALM-6 cells assessed as reduction in proportion of cells at S phase at 30 uM incubated for 48 hrs by PI/RNase staining based flow cytometry; type: functional
NALM-6 [14] = experiment: Downregulation of HDAC2 expression in human NALM-6 cells incubated for 48 hrs by western blot analysis; type: functional, cell-based; conditions: dose 10-30 µM, DDE = dose-dependent effect
NALM-6 [15] = experiment: Antiproliferative activity against human NALM-6 cells assessed as reduction in cell viability incubated for 24 hrs by CCK8 assay; type: functional, cell-based
NALM-6 [16] = experiment: Potency index, ratio of celecoxib IC50 to test compound IC50 for antiproliferative activity against human NALM-6 cells assessed as reduction in cell viability incubated for 48 hrs by CCK8 assay; type: functional
HUVEC [17] = experiment: Cytotoxicity against human HUVEC cells assessed as reduction in cell viability up to 50 uM by CCK8 assay; type: toxicity, cell-based

With `O=C(CCCCCCC(=O)Nc1ccccc1)NO` [VORINOSTAT] the Activity (MCF-10A) was “Toxic”, the Activity (HUVEC [1]) was “Toxic” and the Activity (L02) was “Toxic”.
`Cc1ccc(-c2cc(C(F)(F)F)nn2-c2ccc(S(=O)(=O)NC(=O)CCC[Se]C#N)cc2)cc1` was tested, and the IC50 (NALM-6 [2]) was greater than 100 µM, the IC50 (HL-60) was greater than 100 µM and the IC50 (K562) was greater than 100 µM. It also gave an IC50 (Jurkat) greater than 100 µM.
In the case of `Cc1ccc(-c2cc(C(F)(F)F)nn2-c2ccc(S(=O)(=O)NC(=O)CCCC[Se]C#N)cc2)cc1`, the IC50 (NALM-6 [2]) is reported as greater than 100 µM, the IC50 (HL-60) is reported as 59.8 µM and the IC50 (K562) is reported as greater than 100 µM. The IC50 (Jurkat) was greater than 100 µM.
With `Cc1ccc(-c2cc(C(F)(F)F)nn2-c2ccc(S(=O)(=O)NC(=O)CCCCC[Se]C#N)cc2)cc1` the Activity (MCF-10A) was “Non-Toxic”, the viability at 10 µM (NALM-6 [3]) was 97.7% and the Activity (HUVEC [1]) was “Non-Toxic”. For the same compound, the IC50 (Histone deacetylase) was 11.75 µM, the Activity (NALM-6 [4]) was 0.72% and the Activity (NALM-6 [5]) was 0.49%. For the same compound, the viability at 30 µM (NALM-6 [6]) was 85.8%, the Activity (NALM-6 [7]) was 0.09% and the Activity (NALM-6 [8]) was “Active”. For the same compound, the Activity (NALM-6 [9]) was “Active”, the Activity (NALM-6 [10]) was 9.51% and the Activity (NALM-6 [11]) was 4.17%. It also gave an IC50 (NALM-6 [2]) of 9.95 µM, an Activity (NALM-6 [12]) of 1.53% and an IC50 (HL-60) of 26.8 µM. The Activity (NALM-6 [13]) was “Active”, the IC50 (K562) was 11.7 µM and the Activity (L02) was “Non-Toxic”. For the same compound, the inhibition (NALM-6 [14]) was “Dde”, the Activity (NALM-6 [15]) was “Active” and the “Ratio IC50” value (NALM-6 [16]) was 2.8. For the same compound, the IC50 (Jurkat) was 12.6 µM.
In the case of `Cc1ccc(-c2cc(C(F)(F)F)nn2-c2ccc(S(=O)(=O)NC(=O)C[Se]C#N)cc2)cc1`, the IC50 (NALM-6 [2]) is reported as 34.9 µM, the IC50 (HL-60) is reported as 30 µM and the IC50 (K562) is reported as 44.1 µM. For the same compound, the IC50 (Jurkat) was 33.3 µM.
In the case of `Cc1ccc(-c2cc(C(F)(F)F)nn2-c2ccc(S(N)(=O)=O)cc2)cc1` [CELECOXIB], the Activity (HUVEC [17]) is reported as “Non-Toxic”, the IC50 (NALM-6 [2]) is reported as 28.6 µM and the IC50 (HL-60) is reported as 44.7 µM. The IC50 (K562) was 57.8 µM and the IC50 (Jurkat) was 32.1 µM.
Work on `Cc1ccc(-c2cc(C(F)(F)F)nn2-c2ccc(S(=O)(=O)NC(=O)CC[Se]C#N)cc2)cc1` yielded an IC50 (NALM-6 [2]) greater than 100 µM, an IC50 (HL-60) of 62.5 µM and an IC50 (K562) greater than 100 µM. The IC50 (Jurkat) was greater than 100 µM.
